Data taken from ChEMBL document CHEMBL1201862, “PubChem BioAssay data set” (2004).
Activity calls are given as the source filed them.

What was measured:
[1] = inhibitors of firefly luciferase expression or activity, dose response, H4 neuroglioma cells, luminescence (AID 1990); assay type: functional, cell-based
[2] = target: T1, Replicative DNA helicase DnaB (Mycobacterium tuberculosis, UniProt P9WMR3); assay: DnaB intein splicing inhibitors, dose response, biochemical, cell-free fluorescence (AID 449749); assay type: functional
T1 sequence (P9WMR3 whole entry): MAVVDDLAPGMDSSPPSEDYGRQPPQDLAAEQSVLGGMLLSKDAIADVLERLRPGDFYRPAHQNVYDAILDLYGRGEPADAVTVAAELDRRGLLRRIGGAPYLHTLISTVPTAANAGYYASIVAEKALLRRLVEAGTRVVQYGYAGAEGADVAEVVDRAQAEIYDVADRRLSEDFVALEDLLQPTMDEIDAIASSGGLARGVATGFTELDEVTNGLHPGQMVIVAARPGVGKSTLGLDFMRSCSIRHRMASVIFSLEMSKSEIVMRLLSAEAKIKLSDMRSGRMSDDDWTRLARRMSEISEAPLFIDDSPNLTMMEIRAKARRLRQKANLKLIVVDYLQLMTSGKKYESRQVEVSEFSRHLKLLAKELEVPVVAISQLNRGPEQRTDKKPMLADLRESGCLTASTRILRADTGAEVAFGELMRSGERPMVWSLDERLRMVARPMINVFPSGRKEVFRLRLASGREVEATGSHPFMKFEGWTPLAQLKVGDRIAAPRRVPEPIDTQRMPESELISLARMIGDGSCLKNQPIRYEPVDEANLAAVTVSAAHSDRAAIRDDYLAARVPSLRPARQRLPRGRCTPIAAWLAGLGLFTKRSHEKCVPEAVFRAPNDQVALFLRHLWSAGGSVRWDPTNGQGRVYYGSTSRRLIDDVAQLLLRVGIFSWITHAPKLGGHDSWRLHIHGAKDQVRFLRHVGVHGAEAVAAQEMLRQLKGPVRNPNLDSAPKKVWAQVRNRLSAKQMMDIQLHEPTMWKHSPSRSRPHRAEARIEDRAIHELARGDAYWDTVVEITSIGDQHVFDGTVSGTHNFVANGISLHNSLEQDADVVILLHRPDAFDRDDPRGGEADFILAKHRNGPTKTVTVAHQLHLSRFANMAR

[3] = growth suppression of PTEN-null colon cells, dose response, cell-based, HCT116 PTEN knockout (AID 1047); assay type: functional;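 note: HCT116 colon tumor cells with PTEN knocked out; cells exposed to compound for 60 hours before readout; potency for loss of cell viability measured by luminescence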
[4] = cytotoxicity toward NIH3T3 fibroblasts, dose response, counter-screen, cell-based, ATP luminescence, mouse fibroblasts (AID 2010); assay type: functional;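 note: cells exposed to compound for about 90 hours before reading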
[5] = microbe, parasite or virus in culture; assay type: functional; conditions: Mycobacterium tuberculosis
[6] = growth suppression of beta-catenin-knockout colon cells, dose response, cell-based, HCT116, human colon tumor (AID 1045); assay type: functional;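 note: HCT116 colon tumor cells with beta catenin knocked out; cells exposed to compound for 60 hours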
[7] = target: Glucose-6-phosphate 1-dehydrogenase (Homo sapiens, UniProt P11413); assay: human G6PD enzyme inhibitors, dose response, selectivity assay for P. falciparum G6PD inhibitor project, biochemical, fluorescence (AID 504792); assay type: functional
Sequence of Glucose-6-phosphate 1-dehydrogenase (P11413 whole entry): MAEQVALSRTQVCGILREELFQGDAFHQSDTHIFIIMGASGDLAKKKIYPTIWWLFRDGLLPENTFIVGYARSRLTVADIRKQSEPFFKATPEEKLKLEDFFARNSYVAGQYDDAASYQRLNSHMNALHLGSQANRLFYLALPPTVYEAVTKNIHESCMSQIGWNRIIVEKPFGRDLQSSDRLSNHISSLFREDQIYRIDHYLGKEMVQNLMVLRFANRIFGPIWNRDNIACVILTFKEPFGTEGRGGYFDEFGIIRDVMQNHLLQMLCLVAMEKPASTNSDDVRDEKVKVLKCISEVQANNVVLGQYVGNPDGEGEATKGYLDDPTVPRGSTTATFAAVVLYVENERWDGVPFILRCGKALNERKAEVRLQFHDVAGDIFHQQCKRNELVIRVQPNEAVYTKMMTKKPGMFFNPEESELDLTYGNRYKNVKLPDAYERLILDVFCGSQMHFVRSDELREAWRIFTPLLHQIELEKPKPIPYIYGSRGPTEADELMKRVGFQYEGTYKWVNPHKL

[8] = target: T2, Protein RecA (Mycobacterium tuberculosis, UniProt P9WHJ3); assay: Fluorescence Cell-Free Homogeneous Dose Retest to Identify Inhibitors of RecA-Intein Splicing Activity. [Related pubchem assays (depositor defined):AID2097, AID2223, AID489010, AID492950]; assay type: functional
T2 sequence (P9WHJ3 whole entry): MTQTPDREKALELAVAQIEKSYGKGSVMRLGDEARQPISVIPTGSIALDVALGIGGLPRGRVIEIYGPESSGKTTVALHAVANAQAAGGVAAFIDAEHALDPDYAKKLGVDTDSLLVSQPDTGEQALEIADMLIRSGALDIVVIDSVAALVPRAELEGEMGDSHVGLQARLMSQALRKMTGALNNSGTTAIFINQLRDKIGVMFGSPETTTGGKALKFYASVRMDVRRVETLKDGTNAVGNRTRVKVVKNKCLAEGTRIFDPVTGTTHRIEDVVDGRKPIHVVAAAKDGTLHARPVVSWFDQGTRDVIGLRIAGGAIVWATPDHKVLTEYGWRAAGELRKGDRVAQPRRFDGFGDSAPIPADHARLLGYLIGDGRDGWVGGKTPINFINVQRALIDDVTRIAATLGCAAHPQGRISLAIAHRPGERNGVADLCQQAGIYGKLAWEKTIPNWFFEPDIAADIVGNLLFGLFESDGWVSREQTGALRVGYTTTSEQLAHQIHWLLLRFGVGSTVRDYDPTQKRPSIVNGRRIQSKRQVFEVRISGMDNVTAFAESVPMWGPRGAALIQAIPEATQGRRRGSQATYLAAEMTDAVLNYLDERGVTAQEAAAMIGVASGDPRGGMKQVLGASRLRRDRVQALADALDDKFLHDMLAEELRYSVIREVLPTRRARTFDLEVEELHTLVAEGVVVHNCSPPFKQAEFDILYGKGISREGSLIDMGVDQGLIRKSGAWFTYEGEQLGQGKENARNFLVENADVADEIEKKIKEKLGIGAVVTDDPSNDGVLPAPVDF

[9] = Intein inhibitors as potential Tuberculosis drugs, a cytotoxicity screen. [Related pubchem assays (depositor defined):AID2221, AID2223, AID434968, AID435010, AID449749, AID449750, AID489010]; assay type: functional
[10] = target: Photoreceptor-specific nuclear receptor (Homo sapiens, UniProt Q9Y5X4); assay type: functional, cell-based;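 note: CHO-S cells with Gal4-NCOR and VP16-NR2E3 two-hybrid luciferase reporter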
Sequence of Photoreceptor-specific nuclear receptor (Q9Y5X4 whole entry, the tested form may be a part): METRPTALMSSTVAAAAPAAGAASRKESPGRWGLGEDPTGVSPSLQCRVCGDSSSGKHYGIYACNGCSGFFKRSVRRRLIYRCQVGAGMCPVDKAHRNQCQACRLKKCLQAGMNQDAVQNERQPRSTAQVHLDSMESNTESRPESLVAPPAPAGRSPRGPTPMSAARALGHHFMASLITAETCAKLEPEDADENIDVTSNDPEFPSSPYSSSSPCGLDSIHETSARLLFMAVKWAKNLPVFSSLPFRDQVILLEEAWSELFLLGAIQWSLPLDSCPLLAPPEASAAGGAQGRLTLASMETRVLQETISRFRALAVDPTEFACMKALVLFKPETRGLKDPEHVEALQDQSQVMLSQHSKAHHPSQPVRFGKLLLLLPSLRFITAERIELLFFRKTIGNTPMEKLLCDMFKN

[11] = inhibitors of intracellular T. cruzi replication, confirmation, NIH3T3 host cells, beta-gal luminescence (AID 2044); assay type: functional, cell-based;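 note: intracellular parasites grown in NIH/3T3 mouse fibroblasts as host cells; luminescent beta-galactosidase reporter signal from transgenic T. cruzi replicating inside host cells; inhibitors lower the luminescence signal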
[12] = Luminescence Cell-Based Dose Response HTS to Identify Inhibitors of 5'UTR Stem-Loop Driven Prion Protein mRNA Translation in H4 Neuroglioblastoma Cells. [Related pubchem assays: 1827 (Project Summary), 1813 (Primary HTS)]; assay type: functional
[13] = tested on: Streptococcus; assay: Group A Streptococcus viability loss, dose response, counter-screen for streptokinase expression inhibitor project, luminescence, BacTiterGlo (AID 1915); assay type: functional, organism-based;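 note: potency for reduction of bacterial viability or growth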
[14] = target: T3, Streptokinase A (Streptococcus pyogenes serotype M1, UniProt P10520); assay: S. pyogenes streptokinase expression inhibitors, potency, dose response, plasminogen activation absorbance, OD405 (AID 1914); assay type: functional, Streptococcus pyogenes M1 GAS;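 note: secreted streptokinase activity via plasminogen activation per viability signal from cell pellet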
T3 sequence (P10520 whole entry): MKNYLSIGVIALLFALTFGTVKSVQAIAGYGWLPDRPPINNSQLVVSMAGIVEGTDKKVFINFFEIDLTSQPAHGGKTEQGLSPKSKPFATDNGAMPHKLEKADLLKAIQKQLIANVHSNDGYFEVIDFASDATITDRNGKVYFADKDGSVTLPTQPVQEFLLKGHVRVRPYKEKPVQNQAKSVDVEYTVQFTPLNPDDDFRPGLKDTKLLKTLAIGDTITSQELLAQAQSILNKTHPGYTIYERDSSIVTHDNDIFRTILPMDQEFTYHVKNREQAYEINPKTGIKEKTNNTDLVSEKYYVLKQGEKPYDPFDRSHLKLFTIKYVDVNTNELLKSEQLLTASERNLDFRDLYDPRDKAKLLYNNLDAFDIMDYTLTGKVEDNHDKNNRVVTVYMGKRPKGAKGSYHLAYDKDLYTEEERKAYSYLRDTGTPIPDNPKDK

[15] = tested on: Streptococcus sp. 'group A'; assay: growth inhibition of control SK(-) GAS strain, dose response, counter-screen for streptokinase expression inhibitor project, luminescence, kanamycin, BacTiterGlo, confirmation (AID 1900); assay type: functional, organism-based
[16] = inhibitors of SNCA 5'UTR-driven reporter translation, confirmation, H4 neuroglioma cells, luminescence (AID 1988); assay type: functional, cell-based
[17] = target: Alkaline phosphatase, placental type (Homo sapiens, UniProt P05187); assay: PLAP enzyme inhibitors, confirmation, biochemical, luminescence (AID 1512); assay type: functional
Sequence of Alkaline phosphatase, placental type (P05187 whole entry): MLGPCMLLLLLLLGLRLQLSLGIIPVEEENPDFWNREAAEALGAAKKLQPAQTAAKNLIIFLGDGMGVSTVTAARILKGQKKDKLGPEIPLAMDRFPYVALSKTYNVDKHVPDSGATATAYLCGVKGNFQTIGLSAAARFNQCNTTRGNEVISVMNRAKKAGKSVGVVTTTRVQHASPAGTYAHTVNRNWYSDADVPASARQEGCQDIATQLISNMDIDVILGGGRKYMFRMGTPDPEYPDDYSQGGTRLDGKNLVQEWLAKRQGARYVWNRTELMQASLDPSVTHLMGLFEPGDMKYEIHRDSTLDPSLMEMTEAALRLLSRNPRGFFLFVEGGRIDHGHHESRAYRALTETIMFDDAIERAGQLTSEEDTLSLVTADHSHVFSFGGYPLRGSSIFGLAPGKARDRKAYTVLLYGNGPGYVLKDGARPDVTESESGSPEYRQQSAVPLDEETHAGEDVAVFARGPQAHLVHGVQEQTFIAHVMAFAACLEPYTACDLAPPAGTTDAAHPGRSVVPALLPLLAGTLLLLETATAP

[18] = target: Dual specificity protein phosphatase 3 (Homo sapiens, UniProt P51452); assay: SAR VHR1 Fluorescent Assay for In Vitro dose response studies Set 2. [Related pubchem assays (depositor defined):AID1654, AID1661, AID1878]; assay type: functional
Sequence of Dual specificity protein phosphatase 3 (P51452 whole entry): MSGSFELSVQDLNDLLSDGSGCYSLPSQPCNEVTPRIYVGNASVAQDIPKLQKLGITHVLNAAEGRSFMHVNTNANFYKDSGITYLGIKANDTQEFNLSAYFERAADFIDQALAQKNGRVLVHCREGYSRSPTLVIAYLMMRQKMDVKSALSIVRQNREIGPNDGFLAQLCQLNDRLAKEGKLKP

[19] = target: T4, Tyrosine-protein phosphatase non-receptor type 7 (Homo sapiens, UniProt P35236); assay: SAR analysis of chemical inhibitors of HePTP using a Fluorescent assay - Set 2. [Related pubchem assays (depositor defined):AID1059, AID1077, AID1661, AID2085, AID521]; assay type: functional
T4 sequence (P35236 whole entry): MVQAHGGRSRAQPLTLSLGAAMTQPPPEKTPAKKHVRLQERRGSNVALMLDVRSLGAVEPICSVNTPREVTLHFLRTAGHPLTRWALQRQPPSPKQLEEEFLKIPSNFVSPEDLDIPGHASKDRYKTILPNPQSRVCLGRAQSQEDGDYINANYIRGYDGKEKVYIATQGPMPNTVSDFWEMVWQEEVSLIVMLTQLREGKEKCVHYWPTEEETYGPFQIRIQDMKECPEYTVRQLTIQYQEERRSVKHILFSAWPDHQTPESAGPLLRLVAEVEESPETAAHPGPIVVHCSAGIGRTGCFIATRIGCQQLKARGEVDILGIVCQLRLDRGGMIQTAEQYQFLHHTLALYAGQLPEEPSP

[20] = control 3'UTR Renilla luciferase suppression, dose response, counter-screen for Shn3 inhibitor project, cell-based, Clone20-Shn3RL, cherry-picked (AID 624133); assay type: functional
[21] = tested on: T-cell; assay: inhibitors of CD8+ T cell–vesicle binding, dose response, mouse 2C CD8+ T cells, flow cytometry (AID 485284); assay type: functional
[22] = target: Integrin alpha-L (Mus musculus, UniProt P24063); assay: modulators of CD8 T cell-vesicle binding, dose response, powder samples, mouse 2C CD8+ cells (AID 504565); assay type: functional
Sequence of Integrin alpha-L (P24063 whole entry): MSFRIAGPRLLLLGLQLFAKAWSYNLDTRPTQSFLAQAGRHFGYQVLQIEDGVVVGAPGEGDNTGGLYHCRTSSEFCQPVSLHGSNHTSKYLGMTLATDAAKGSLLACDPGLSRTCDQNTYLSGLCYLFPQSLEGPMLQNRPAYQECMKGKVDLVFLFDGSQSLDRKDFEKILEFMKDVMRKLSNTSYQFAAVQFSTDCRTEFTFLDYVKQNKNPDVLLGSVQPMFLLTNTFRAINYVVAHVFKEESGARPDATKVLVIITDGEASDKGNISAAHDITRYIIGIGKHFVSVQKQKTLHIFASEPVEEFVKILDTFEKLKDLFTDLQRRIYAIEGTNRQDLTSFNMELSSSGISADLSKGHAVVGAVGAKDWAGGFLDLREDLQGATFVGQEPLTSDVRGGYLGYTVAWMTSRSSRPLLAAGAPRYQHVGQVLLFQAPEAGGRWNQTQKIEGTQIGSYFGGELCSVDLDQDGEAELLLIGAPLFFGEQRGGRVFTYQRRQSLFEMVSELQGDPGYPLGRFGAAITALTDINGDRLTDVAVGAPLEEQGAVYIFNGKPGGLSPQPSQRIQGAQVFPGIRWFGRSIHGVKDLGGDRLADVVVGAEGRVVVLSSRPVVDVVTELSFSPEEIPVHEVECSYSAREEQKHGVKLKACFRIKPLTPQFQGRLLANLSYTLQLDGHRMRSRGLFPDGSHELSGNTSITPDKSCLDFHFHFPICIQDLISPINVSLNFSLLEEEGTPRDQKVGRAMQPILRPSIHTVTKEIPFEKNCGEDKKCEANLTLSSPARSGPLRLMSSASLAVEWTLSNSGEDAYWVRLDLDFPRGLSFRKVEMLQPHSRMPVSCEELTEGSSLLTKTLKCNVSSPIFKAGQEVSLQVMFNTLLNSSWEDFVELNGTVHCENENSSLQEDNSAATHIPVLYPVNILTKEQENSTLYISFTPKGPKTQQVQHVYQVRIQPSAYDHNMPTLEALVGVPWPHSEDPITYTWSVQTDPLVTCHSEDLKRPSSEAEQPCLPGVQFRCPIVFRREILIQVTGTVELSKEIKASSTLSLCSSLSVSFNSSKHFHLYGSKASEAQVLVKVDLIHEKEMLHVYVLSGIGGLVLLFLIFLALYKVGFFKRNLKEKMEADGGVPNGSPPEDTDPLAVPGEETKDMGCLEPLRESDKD

[23] = Shn3 3'UTR reporter inhibitors, dose response, cell-based, Clone20 osteoblasts, firefly luciferase, cherry-picked (AID 624132); assay type: functional;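 note: firefly luciferase luminescence from reporter carrying the Shn3 3'UTR in osteoblasts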

COc1ccc(C(=O)c2c(C(F)(F)F)oc3c2C(=O)c2ccccc2C3=O)cc1OC
EC50 [1]: > 120 µM (not active) | AC50 [2]: 4.74 µM (active) | EC50 [3]: 2.34 µM (active) | EC50 [4]: 5.27 µM (active) | CC50 [5]: 6.08 µM (active) | EC50 [6]: 2.23 µM (active) | IC50 [7]: > 80 µM (inactive) | EC50 [8]: 2.02 µM (active) | CC50 [9]: 5.78 µM (active) | IC50 [10]: 1.99 µM (active) | EC50 [11]: 0.884 µM (active) | EC50 [12]: > 120 µM (not active) | EC50 [13]: 8.91 µM (active) | EC50 [14]: > 150 µM (not active) | EC50 [15]: 0.514 µM (active) | EC50 [16]: 8.35 µM (active)

Cc1ccc(C)c(NC(S)=NNC(=O)c2ccc(Br)o2)c1
IC50 [17]: > 100 µM (inactive) | IC50 [18]: > 100 µM (inactive) | IC50 [19]: > 100 µM (inactive)

COCc1c(C(=O)Nc2cccc(S(=O)(=O)N3CCCCC3)c2)oc2ccccc12
AC50 [20]: 26.4 µM (active) | EC50 [21]: 50.8 µM (inactive) | EC50 [22]: 24.7 µM (inactive) | AC50 [23]: 9.63 µM (active)
